Data taken from US20230148005A1, “MACROCYCLIC COMPOUNDS AND USES THEREOF” (THESEUS PHARMACEUTICALS, INC., priority 2020, published 2023).
Like-named read-outs stand apart in the source and are kept apart here.

Experiments:
[1] = target: EGFR^L858R/T790M/C^797S (Homo sapiens, UniProt P00533, C797S/L858R/T790M); test: in vitro kinase assay (HTRF KinEASE-TK kit), LTC; type: biochemical; settings: kinase inhibition
Source text: (§1) Assays using an in vitro kinase assay kit (HTRF KinEASE-TK kit) can be used to study the inhibitory activity of compounds described herein with respect to EGFR mutants such as EGFR^L858R, EGFR^L58R/T790M, and EGFR^L858R/T790M/C^797S.

[2] = target: EGFR^L58R/T790M (Homo sapiens, UniProt P00533, L858R/T790M); test: in vitro kinase assay (HTRF KinEASE-TK kit), LT; type: biochemical; settings: kinase inhibition
Sequence of EGFR^L58R/T790M (P00533 25-1210 T790M/L858R): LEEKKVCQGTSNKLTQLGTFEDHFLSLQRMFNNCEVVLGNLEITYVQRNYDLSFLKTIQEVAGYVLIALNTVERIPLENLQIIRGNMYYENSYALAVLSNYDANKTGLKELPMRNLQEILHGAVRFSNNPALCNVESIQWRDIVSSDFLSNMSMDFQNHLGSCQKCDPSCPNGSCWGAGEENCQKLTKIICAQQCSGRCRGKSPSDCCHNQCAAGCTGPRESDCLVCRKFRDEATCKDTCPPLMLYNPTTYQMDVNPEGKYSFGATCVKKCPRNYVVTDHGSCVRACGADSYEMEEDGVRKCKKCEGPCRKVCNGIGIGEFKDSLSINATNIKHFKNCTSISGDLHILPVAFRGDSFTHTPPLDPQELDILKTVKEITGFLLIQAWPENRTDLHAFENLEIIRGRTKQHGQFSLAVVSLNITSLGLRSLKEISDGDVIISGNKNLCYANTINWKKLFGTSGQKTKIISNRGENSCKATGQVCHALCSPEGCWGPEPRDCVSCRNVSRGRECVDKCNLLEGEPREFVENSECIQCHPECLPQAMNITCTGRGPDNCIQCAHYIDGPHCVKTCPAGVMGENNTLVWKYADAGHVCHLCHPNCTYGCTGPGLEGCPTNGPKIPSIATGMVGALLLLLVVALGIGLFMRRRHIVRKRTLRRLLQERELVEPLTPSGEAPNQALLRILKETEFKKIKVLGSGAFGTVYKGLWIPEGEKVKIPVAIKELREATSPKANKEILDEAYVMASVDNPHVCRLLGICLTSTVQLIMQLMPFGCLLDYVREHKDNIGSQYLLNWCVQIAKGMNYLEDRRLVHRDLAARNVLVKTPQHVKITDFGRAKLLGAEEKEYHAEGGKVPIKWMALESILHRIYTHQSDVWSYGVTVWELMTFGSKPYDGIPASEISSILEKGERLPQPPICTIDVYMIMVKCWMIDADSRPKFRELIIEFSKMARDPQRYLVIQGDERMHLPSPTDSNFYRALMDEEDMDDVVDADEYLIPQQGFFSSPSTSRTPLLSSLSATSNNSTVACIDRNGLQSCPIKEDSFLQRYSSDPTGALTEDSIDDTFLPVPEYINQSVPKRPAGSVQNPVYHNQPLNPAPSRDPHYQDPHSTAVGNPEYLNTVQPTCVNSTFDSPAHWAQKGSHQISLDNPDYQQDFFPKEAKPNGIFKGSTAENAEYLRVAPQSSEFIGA
Source text: as §1

[3] = target: EGFR^L858R (Homo sapiens, UniProt P00533, L858R); test: in vitro kinase assay (HTRF KinEASE-TK kit), L; type: biochemical; settings: kinase inhibition
Source text: as §1

[4] = target: Ba/F3 EGFR-Del19/T790M/C797S (Homo sapiens, UniProt P00533, T790M/C797S, cells depend on it, form not given); test: Ba/F3 viability assay (CellTiter-Glo), DTC; type: cell-based; settings: anti-proliferation, read-out: BaF3 DTC IC50
Source text: (§2) Inhibition of cell proliferation can be studied using Ba/F3 viability assays, including the Promega CellTiter-Glo cell viability assay. This assay can be used to study the effect of compounds described herein in the following assays: (1) Ba/F3 Parental; (2) Ba/F3 EGFR-Del19/T790M; (3); Ba/F3 EGFR-Del19/C797S; and (4) Ba/F3 EGFR-Del19/T790M/C797S.

[5] = target: Ba/F3 EGFR-Del19/T790M (Homo sapiens, UniProt P00533, T790M, cells depend on it, form not given); test: Ba/F3 viability assay (CellTiter-Glo), DT; type: cell-based; settings: anti-proliferation, read-out: BaF3 DT IC50
Sequence of Ba/F3 EGFR-Del19/T790M (P00533 with tags, fused parts or gaps DEL746-750/T790M, form open): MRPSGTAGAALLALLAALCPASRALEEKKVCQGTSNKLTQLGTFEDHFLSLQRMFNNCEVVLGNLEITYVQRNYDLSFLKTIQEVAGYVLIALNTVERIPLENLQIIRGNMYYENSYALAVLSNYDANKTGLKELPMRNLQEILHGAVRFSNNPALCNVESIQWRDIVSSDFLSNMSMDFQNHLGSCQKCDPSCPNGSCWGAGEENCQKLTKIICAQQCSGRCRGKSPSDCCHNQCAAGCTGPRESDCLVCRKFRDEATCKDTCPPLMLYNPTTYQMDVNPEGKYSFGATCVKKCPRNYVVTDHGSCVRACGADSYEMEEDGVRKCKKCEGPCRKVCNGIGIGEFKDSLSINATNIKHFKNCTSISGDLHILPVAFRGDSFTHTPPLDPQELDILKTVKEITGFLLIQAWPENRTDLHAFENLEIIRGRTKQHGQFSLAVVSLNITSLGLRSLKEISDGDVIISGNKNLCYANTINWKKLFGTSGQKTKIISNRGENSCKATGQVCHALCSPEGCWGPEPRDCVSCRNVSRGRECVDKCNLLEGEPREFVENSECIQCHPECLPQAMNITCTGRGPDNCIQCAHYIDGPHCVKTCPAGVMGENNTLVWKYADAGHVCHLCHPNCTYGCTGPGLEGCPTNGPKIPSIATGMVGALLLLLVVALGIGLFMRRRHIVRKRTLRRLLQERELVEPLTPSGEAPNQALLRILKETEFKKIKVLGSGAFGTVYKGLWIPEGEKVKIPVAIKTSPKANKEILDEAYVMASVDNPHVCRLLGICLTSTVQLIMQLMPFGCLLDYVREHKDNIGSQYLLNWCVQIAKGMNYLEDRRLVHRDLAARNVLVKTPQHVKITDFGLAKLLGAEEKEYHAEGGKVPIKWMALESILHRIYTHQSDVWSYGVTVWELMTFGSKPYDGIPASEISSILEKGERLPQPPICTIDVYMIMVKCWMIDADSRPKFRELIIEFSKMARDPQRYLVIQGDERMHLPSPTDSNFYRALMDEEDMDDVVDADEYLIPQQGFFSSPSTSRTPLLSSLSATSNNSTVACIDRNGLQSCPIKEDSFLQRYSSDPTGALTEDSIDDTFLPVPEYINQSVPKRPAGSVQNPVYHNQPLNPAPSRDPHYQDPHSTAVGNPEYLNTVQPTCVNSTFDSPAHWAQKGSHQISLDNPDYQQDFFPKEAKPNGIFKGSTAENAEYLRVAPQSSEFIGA
Source text: as §2

[6] = target: Ba/F3 EGFR-Del19/C797S (Homo sapiens, UniProt P00533, C797S, cells depend on it, form not given); test: Ba/F3 viability assay (CellTiter-Glo), DC; type: cell-based; settings: anti-proliferation, read-out: BaF3 DC IC50
Sequence of Ba/F3 EGFR-Del19/C797S (P00533 with tags, fused parts or gaps DEL746-750/C797S, form open): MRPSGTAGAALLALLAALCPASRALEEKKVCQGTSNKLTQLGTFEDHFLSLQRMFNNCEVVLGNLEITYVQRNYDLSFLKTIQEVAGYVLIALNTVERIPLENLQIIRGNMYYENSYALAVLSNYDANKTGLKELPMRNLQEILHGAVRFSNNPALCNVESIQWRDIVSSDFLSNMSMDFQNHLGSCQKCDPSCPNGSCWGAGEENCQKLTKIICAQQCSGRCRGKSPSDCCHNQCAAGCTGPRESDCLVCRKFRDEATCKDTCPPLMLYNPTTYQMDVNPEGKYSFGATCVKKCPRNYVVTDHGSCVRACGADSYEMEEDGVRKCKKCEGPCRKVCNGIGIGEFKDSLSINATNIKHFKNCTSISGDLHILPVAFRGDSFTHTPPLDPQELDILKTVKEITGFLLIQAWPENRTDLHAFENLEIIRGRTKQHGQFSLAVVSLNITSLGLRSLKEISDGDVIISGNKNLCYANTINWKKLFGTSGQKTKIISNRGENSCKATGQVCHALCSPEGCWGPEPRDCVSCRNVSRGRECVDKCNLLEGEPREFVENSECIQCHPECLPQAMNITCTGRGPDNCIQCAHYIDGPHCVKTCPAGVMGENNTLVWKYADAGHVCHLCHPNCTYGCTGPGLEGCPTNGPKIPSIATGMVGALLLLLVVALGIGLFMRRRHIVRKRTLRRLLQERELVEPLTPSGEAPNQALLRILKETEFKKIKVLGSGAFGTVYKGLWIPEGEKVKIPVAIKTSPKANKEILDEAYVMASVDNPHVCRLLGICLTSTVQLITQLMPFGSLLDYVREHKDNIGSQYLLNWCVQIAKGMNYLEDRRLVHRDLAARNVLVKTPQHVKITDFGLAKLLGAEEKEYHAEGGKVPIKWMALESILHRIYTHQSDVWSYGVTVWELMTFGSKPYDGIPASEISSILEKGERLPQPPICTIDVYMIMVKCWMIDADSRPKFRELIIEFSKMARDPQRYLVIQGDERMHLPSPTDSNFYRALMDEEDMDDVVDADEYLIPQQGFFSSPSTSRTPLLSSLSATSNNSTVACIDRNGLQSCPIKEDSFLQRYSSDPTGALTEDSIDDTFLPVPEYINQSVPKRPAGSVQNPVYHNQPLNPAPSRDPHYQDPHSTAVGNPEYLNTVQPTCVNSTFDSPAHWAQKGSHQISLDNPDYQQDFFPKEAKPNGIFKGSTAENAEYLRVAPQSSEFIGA
Source text: as §2

[7] = system: Ba/F3 Parental; test: Ba/F3 viability assay (CellTiter-Glo), parental; type: cell-based
Source text: as §2

[8] = Mus musculus, BaF3, anti-proliferation

Sequence of EGFR^L858R/T790M/C^797S (P00533 25-1210 T790M/C797S/L858R): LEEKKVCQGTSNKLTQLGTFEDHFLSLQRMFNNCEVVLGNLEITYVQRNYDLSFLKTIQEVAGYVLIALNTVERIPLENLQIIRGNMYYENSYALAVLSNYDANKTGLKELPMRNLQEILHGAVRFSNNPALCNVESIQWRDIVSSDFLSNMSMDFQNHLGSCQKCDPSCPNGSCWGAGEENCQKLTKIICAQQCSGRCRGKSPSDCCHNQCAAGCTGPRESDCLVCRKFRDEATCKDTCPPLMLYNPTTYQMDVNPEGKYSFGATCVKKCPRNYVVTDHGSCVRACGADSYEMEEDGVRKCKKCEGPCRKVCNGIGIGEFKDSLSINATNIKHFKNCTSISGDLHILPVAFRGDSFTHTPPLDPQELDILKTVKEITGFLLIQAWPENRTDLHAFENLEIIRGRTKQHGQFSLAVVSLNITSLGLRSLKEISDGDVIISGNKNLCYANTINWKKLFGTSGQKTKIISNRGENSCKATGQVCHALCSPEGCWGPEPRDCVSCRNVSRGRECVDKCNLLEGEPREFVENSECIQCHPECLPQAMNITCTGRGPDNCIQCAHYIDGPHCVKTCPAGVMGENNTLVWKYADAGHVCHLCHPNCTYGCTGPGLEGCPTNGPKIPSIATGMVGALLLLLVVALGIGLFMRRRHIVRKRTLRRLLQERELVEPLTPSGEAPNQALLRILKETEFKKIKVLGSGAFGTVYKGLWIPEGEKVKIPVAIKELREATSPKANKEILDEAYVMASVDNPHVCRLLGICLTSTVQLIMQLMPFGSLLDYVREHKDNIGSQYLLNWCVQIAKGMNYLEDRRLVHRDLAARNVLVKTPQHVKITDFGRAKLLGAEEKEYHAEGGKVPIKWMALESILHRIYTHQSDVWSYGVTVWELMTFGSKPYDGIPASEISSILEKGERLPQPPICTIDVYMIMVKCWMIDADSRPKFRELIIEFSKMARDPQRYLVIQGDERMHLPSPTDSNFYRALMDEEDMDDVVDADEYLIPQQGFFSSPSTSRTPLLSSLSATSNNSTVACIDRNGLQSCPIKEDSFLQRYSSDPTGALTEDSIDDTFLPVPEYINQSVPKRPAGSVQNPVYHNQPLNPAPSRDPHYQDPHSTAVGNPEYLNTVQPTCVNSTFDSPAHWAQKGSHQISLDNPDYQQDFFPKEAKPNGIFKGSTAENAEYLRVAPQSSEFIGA

IC50 [1] | IC50 [2] | IC50 [3] | SMILES | GI50 [4] | GI50 [5] | GI50 [6] | IC50 ([7]; anti-proliferation, read-out: BaF3 parental IC50) | IC50 [7, 8]
100 to 1000 nM | 10 to 100 nM | ≥ 1000 nM | C[C@@H]1CCCOc2c(cnn2C)-c2nccc(n2)Nc2cc3c(cn2)c(N2CCC2)nn31 [(77)] | 100 to 1000 nM | ≥ 1000 nM | 100 to 1000 nM | ≥ 1000 nM | –
< 10 nM | < 10 nM | 10 to 100 nM | C[C@H]1CCCOc2c(cnn2C)-c2nccc(n2)Nc2cc3c(cn2)c(N2CCC2)nn31 [(78)] | 10 to 100 nM | 10 to 100 nM | 10 to 100 nM | – | 100 to 1000 nM
< 10 nM | < 10 nM | < 10 nM | CCn1cc(-c2nn3c4cc(ncc24)Nc2ccnc(n2)-c2cnn(C)c2OCCC3C)cc1CN1CCN(C(C)C)CC1 (stereo not shown) [(80)] | < 10 nM | < 10 nM | < 10 nM | – | 10 to 100 nM
< 10 nM | < 10 nM | 100 to 1000 nM | CCn1cc(CN2CCN(C)CC2)cc1-c1nn2c3cc(ncc13)Nc1ccnc(n1)-c1cnn(C)c1OCCC2C (stereo not shown) [(82)] | 10 to 100 nM | 10 to 100 nM | 10 to 100 nM | – | 10 to 100 nM
< 10 nM | < 10 nM | 10 to 100 nM | CC1CCOc2c(cnn2C)-c2nccc(n2)Nc2cc3c(cn2)c(-c2cc(CN4CCN(C)CC4)cn2C)nn31 (stereo not shown) [(83)] | 10 to 100 nM | 10 to 100 nM | 10 to 100 nM | – | 10 to 100 nM
< 10 nM | < 10 nM | 10 to 100 nM | CC1CCCOc2c(cnn2C)-c2nccc(n2)Nc2cc3c(cn2)c(-c2cc(CN4CCN(C)CC4)nn2C)nn31 (stereo not shown) [(84)] | 10 to 100 nM | 10 to 100 nM | 100 to 1000 nM | – | 100 to 1000 nM
< 10 nM | < 10 nM | 10 to 100 nM | CCn1ccc(-c2nn3c4cc(ncc24)Nc2ccnc(n2)-c2cnn(C)c2OCCCC3C)n1 (stereo not shown) [(85)] | < 10 nM | < 10 nM | 10 to 100 nM | – | ≥ 1000 nM
< 10 nM | < 10 nM | 10 to 100 nM | CCn1nccc1-c1nn2c3cc(ncc13)Nc1ccnc(n1)-c1cnn(C)c1OCCCC2C (stereo not shown) [(86)] | 10 to 100 nM | 10 to 100 nM | 10 to 100 nM | – | ≥ 1000 nM
< 10 nM | < 10 nM | 10 to 100 nM | CC1CCCOc2c(cnn2C)-c2nccc(n2)Nc2cc3c(cn2)c(-c2ccc(CN4CCN(C5CC5)CC4)o2)nn31 (stereo not shown) [(87)] | < 10 nM | 10 to 100 nM | 10 to 100 nM | – | 100 to 1000 nM
< 10 nM | < 10 nM | 10 to 100 nM | CCn1cc(C(=O)N2CCN(C)CC2)cc1-c1nn2c3cc(ncc13)Nc1ccnc(n1)-c1cnn(C)c1OCCC2C (stereo not shown) [(88)] | 100 to 1000 nM | 100 to 1000 nM | 100 to 1000 nM | – | 100 to 1000 nM
< 10 nM | < 10 nM | 10 to 100 nM | Cc1nn(CCC(C)(C)O)cc1-c1nn2c3cc(ncc13)Nc1ccnc(n1)-c1cnn(C)c1OCCCC2C (stereo not shown) [(89)] | 10 to 100 nM | 10 to 100 nM | 10 to 100 nM | – | 100 to 1000 nM
< 10 nM | < 10 nM | 10 to 100 nM | Cc1c(-c2nn3c4cc(ncc24)Nc2ccnc(n2)-c2cnn(C)c2OCCCC3C)cnn1CCC(C)(C)O (stereo not shown) [(92)] | 10 to 100 nM | 10 to 100 nM | 10 to 100 nM | – | 100 to 1000 nM
< 10 nM | < 10 nM | < 10 nM | CC(C)N1CCN(CC2CCN(c3nn4c5cc(ncc35)Nc3ccnc(n3)-c3cnn(C)c3OCC[C@@H]4C)C2)CC1 (stereo partly shown) [(93)] | < 10 nM | < 10 nM | < 10 nM | – | 10 to 100 nM
< 10 nM | < 10 nM | 100 to 1000 nM | CC1CCCOc2c(cnn2C)-c2nccc(n2)Nc2cc3c(cn2)c(-c2nnc(CN4CCN(C)CC4)o2)nn31 (stereo not shown) [(94)] | 100 to 1000 nM | 100 to 1000 nM | 100 to 1000 nM | – | ≥ 1000 nM
< 10 nM | < 10 nM | < 10 nM | C[C@H]1CCOc2c(cnn2C)-c2nccc(n2)Nc2cc3c(cn2)c(-c2cc(CN4CCN(C)CC4)n(C)n2)nn31 [(95)] | 10 to 100 nM | 10 to 100 nM | 10 to 100 nM | – | 100 to 1000 nM
< 10 nM | < 10 nM | < 10 nM | C[C@H]1CCOc2c(cnn2C)-c2nccc(n2)Nc2cc3c(cn2)c(-c2ccnc(N4CCN(C)CC4)c2)nn31 [(96)] | 10 to 100 nM | 10 to 100 nM | 10 to 100 nM | – | 100 to 1000 nM
10 to 100 nM | < 10 nM | 100 to 1000 nM | C[C@H]1CCOc2c(cnn2C)-c2nccc(n2)Nc2cc3c(cn2)c(N2CCN(C4CC4)CC2)nn31 [(97)] | 100 to 1000 nM | 100 to 1000 nM | 100 to 1000 nM | – | ≥ 1000 nM
< 10 nM | < 10 nM | < 10 nM | C[C@H]1CCOc2c(cnn2C)-c2nccc(n2)Nc2cc3c(cn2)c(-c2cccc(CN4CCN(C)CC4)c2)nn31 [(98)] | 10 to 100 nM | 10 to 100 nM | 10 to 100 nM | – | 100 to 1000 nM
< 10 nM | < 10 nM | 10 to 100 nM | C[C@H]1CCOc2c(cnn2C)-c2nccc(n2)Nc2cc3c(cn2)c(-c2ccncc2)nn31 [(100)] | 10 to 100 nM | 10 to 100 nM | 10 to 100 nM | – | 100 to 1000 nM
< 10 nM | < 10 nM | < 10 nM | C[C@H]1CCOc2c(cnn2C)-c2nccc(n2)Nc2cc3c(cn2)c(-c2ccc(CN4CCN(C)CC4)n2C)nn31 [(101), (16S)-11,16-dimethyl-19-[1-methyl-5-[(4-methylpiperazin-1-yl)methyl]pyrrol-2-yl]-13-oxa-2,6,10,11,17,18,22,25-octazapentacyclo[15.5.2.13,7.08,12.020,24]pentacosa-1(22),3,5,7(25),8(12),9,18,20,23-nonaene] | < 10 nM | < 10 nM | < 10 nM | – | 100 to 1000 nM
< 10 nM | < 10 nM | < 10 nM | C[C@H]1CCOc2c(cnn2C)-c2nccc(n2)Nc2cc3c(cn2)c(-c2cnn(CCN(C)C)c2)nn31 [(102)] | 10 to 100 nM | 10 to 100 nM | 10 to 100 nM | – | 100 to 1000 nM
< 10 nM | < 10 nM | < 10 nM | C[C@H]1CCOc2c(cnn2C)-c2nccc(n2)Nc2cc3c(cn2)c(-c2csc(CN4CCN(C)CC4)n2)nn31 [(103)] | < 10 nM | < 10 nM | 10 to 100 nM | – | 100 to 1000 nM
< 10 nM | < 10 nM | 10 to 100 nM | C[C@H]1CCOc2c(cnn2C)-c2nccc(n2)Nc2cc3c(cn2)c(N2CCOCC2)nn31 [(104)] | 10 to 100 nM | 10 to 100 nM | 10 to 100 nM | – | 100 to 1000 nM
< 10 nM | < 10 nM | < 10 nM | C[C@H]1CCOc2c(cnn2C)-c2nccc(n2)Nc2cc3c(cn2)c(-c2cc(CN4CCOCC4)n(C)n2)nn31 [(105)] | < 10 nM | < 10 nM | 10 to 100 nM | – | ≥ 1000 nM
< 10 nM | < 10 nM | < 10 nM | C[C@H]1CCOc2c(cnn2C)-c2nccc(n2)Nc2cc3c(cn2)c(-c2cnc(CN4CCN(C)CC4)s2)nn31 [(106)] | 10 to 100 nM | 10 to 100 nM | < 10 nM | – | 100 to 1000 nM
< 10 nM | < 10 nM | < 10 nM | C[C@H]1CCOc2c(cnn2C)-c2nccc(n2)Nc2cc3c(cn2)c(-c2ncc(CN4CCN(C)CC4)s2)nn31 [(107), (16S)-11,16-dimethyl-19-[5-[(4-methylpiperazin-1-yl)methyl]thiazol-2-yl]-13-oxa-2,6,10,11,17,18,22,25-octazapentacyclo[15.5.2.13,7.08,12.020,24]pentacosa-1(22),3,5,7(25),8(12),9,18,20,23-nonaene] | < 10 nM | < 10 nM | < 10 nM | – | 100 to 1000 nM
< 10 nM | < 10 nM | < 10 nM | C[C@H]1CCOc2c(cnn2C)-c2nccc(n2)Nc2cc3c(cn2)c(-c2cccc(N4CCC(N(C)C)CC4)c2)nn31 [(108)] | < 10 nM | 10 to 100 nM | 10 to 100 nM | – | 100 to 1000 nM
< 10 nM | < 10 nM | < 10 nM | C[C@H]1CCOc2c(cnn2C)-c2nccc(n2)Nc2cc3c(cn2)c(-c2ccn(C)c2)nn31 [(109)] | < 10 nM | < 10 nM | < 10 nM | – | 100 to 1000 nM
